Source: ChEMBL document CHEMBL5233269, “Anticancer potential of spirocompounds in medicinal chemistry: A pentennial expedition” (Eur J Med Chem, 2021)

Assays:
L02 = assay: Antiproliferative activity against human L02 cells by MTT assay; type: functional, cell-based
HepG2 [1] = assay: Antiproliferative activity against human HepG2 cells by MTT assay; type: functional, cell-based
MCF7 [2] = assay: Anticancer activity against human MCF7 cells assessed as inhibition of cell growth by MTT assay; type: functional, cell-based
HeLa [3] = assay: Anticancer activity against human HeLa cells assessed as inhibition of cell growth by MTT assay; type: functional, cell-based
A549 [4] = assay: Anticancer activity against human A549 cells assessed as inhibition of cell growth by MTT assay; type: functional, cell-based
MCF7 [5] = assay: Anticancer activity against human MCF7 cells assessed as reduction of cell growth; type: functional, cell-based
PC-3 = assay: Anticancer activity against human PC-3 cells assessed as reduction of cell growth; type: functional, cell-based
A-431 = assay: Anticancer activity against human A-431 cells; type: functional, cell-based
[6] = Anticancer activity against human MCF-10A cells assessed as reduction of cell growth; type: toxicity, cell-based
HepG2 [7] = assay: Cytotoxicity against human HepG2 cells incubated overnight by MTT assay; type: functional, cell-based
HCT-116 = assay: Cytotoxicity against human HCT-116 cells incubated overnight by MTT assay; type: functional, cell-based
B16-F10 = assay: Anticancer activity against mouse B16-F10 cells; type: functional, cell-based
HeLa [8] = assay: Anticancer activity against human HeLa cells assessed as inhibition of cell proliferation; type: functional, cell-based
MDA-MB-231 = assay: Anticancer activity against human MDA-MB-231 cells measured after 48 hrs by MTT assay; type: functional, cell-based; conditions: MDA-MB-231, 48 h
Ishikawa = assay: Anticancer activity against human Ishikawa cells measured after 48 hrs by MTT assay; type: functional, cell-based
MCF7 [9] = assay: Anticancer activity against human MCF7 cells measured after 48 hrs by MTT assay; type: functional, cell-based; conditions: MCF7, 48 h
LNCaP = assay: Anticancer activity against human LNCaP cells measured after 48 hrs by MTT assay; type: functional, cell-based
DU-145 = assay: Anticancer activity against human DU-145 cells measured after 48 hrs by MTT assay; type: functional, cell-based; conditions: DU-145, 48 h
MCF7 [10] = assay: Anticancer activity against human MCF7 cells at 10 uM by MTT assay relative to control; type: functional
MCF7 [11] = assay: Antiproliferative activity against human MCF7 cells assessed as inhibition of cell viability; type: functional, cell-based
K562 = assay: Antiproliferative activity against human K562 cells assessed as inhibition of cell viability; type: functional, cell-based
MCF7 [12] = assay: Inhibition of cell proliferation in human MCF7 cells; type: functional, cell-based
[13] = Inhibition of cell proliferation in human MCF-10A cells at 50 uM by MTT colorimetric cell viability assay relative to control; type: toxicity, cell-based
Ehrlich = assay: Antitumor activity against mouse Ehrlich ascites carcinoma xenografted in mouse model assessed tumor growth inhibition relative to control; type: functional; set-up: scale not given: the % may be the effect or the level left
Sarcoma-180 = assay: Antitumor activity against mouse Sarcoma-180 xenografted in mouse model assessed tumor growth inhibition relative to control; type: functional; set-up: scale not given: the % may be the effect or the level left
[14] = biological target: T1, Amine oxidase [flavin-containing] A (Rattus norvegicus, UniProt P21396); assay: Inhibition of rat brain MAO-A relative to control; type: tissue-based
T1 sequence (P21396 whole entry): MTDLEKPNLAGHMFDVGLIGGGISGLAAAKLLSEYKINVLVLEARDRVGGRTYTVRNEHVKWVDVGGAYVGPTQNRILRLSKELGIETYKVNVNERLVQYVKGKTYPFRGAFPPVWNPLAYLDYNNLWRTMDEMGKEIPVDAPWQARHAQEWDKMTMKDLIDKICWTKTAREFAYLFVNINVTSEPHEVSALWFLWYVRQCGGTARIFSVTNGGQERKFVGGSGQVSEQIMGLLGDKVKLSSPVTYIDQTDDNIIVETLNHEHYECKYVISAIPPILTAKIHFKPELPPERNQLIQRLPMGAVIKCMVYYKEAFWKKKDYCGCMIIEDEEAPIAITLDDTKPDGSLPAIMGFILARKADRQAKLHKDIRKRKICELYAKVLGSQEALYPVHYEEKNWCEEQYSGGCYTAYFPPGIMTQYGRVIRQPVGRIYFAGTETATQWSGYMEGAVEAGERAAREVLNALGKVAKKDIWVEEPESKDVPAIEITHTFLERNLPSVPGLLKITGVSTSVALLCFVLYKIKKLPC

HepG2 [15] = assay: Anticancer activity against human HepG2 cells at 200 microg/ml measured after 48 hrs relative to control; type: functional
4T1 = assay: Anticancer activity against mouse 4T1 cells at 200 microg/ml measured after 48 hrs relative to control; type: functional
HT-29 = assay: Antiproliferative activity against human HT-29 cells measured after 48 hrs by MTT assay; type: functional, cell-based; conditions: HT-29, 48 h
HepG2 [16] = assay: Antiproliferative activity against human HepG2 cells measured after 48 hrs by MTT assay; type: functional, cell-based; conditions: HepG2, 48 h
[17] = Antiproliferative activity against human […] cells measured after 48 hrs by MTT assay; type: functional, cell-based
A549 [18] = assay: Antiproliferative activity against human A549 cells measured after 48 hrs by MTT assay; type: functional, cell-based; conditions: A549, 48 h
MCF7 [19] = assay: Antiproliferative activity against human MCF7 cells measured after 48 hrs by MTT assay; type: functional, cell-based; conditions: MCF7, 48 h
HeLa [20] = assay: Antiproliferative activity against human HeLa cells measured after 48 hrs by MTT assay; type: functional, cell-based
HL-60 = assay: Antiproliferative activity against human HL-60 cells measured after 48 hrs by MTT assay; type: functional, cell-based; conditions: HL-60, 48 h
SW480 = assay: Antiproliferative activity against human SW480 cells measured after 48 hrs by MTT assay; type: functional, cell-based; conditions: SW480, 48 h
HeLa [21] = assay: Cytotoxicity against human HeLa cells incubated for 48 hrs by MTT assay; type: functional, cell-based
HeLa [22] = assay: Cytotoxicity against human HeLa cells incubated for 24 hrs by MTT assay; type: functional, cell-based

O=C1C(=O)C2C(N=C3N=NNN3C23C(=O)Nc2c(C(F)(F)F)cccc23)c2ccccc21 (centres undefined)
IC50 (L02): 49.9 µM | IC50 (HepG2 [1]): 7.9 µM

O=C1C2=C(c3ccccc31)N(c1ccc(N3CCOCC3)c(F)c1)C1=C(C(=O)c3ccccc31)C21C(=O)Nc2ccccc21
IC50 (MCF7 [2]): 6.47 µM | IC50 (HeLa [3]): 9.14 µM | IC50 (A549 [4]): 17.8 µM

CC1(C)CC(=O)C2C(C1)N(c1ccccc1F)C(=O)C21c2ccccc2NC2C(=O)CC(C)(C)CC21 (centres undefined)
IC50 (MCF7 [5]): 7.82 µM | IC50 (PC-3): 84.9 µM | IC50 (A-431): 52.1 µM | IC50 [6]: 36.3 µM

O=C(/C=C/c1ccc(Br)cc1)[C@H]1[C@H](c2ccc(Br)cc2)C2CSCN2[C@]12C(=O)Nc1ccccc12 (some centres undefined)
IC50 (HepG2 [7]): 0.8 µM | IC50 (HCT-116): 3 µM

CN1C(=O)N(C)C(=O)C2(CC3(C(=O)c4ccccc4C3=O)N(C)[C@H]2c2ccccc2)C1=O
IC50 (B16-F10): 3.5 µM | IC50 (HeLa [8]): 4.3 µM

O=C1NC2(C3=C(C(=O)C4C=CC=CC4C3=O)c3ccccc32)c2cc(Cl)c(Cl)cc21 (centres undefined)
IC50 (MDA-MB-231): 3.01 µM | IC50 (Ishikawa): 0.75 µM | IC50 (MCF7 [9]): 1.02 µM | IC50 (LNCaP): 1.1 µM | IC50 (DU-145): 2.13 µM

CC1(C)CC(=O)C2C(C1)N(c1ccccn1)C(=O)C21c2ccccc2NC2C(=O)CC(C)(C)CC21 (centres undefined)
IC50 (MCF7 [5]): 9.88 µM | IC50 (PC-3): 73.1 µM | IC50 (A-431): 42.4 µM | IC50 [6]: 34.6 µM

COC(=O)c1[nH]nc2c1C1(C(=O)N(C(C)=O)c3ccccc31)C(C#N)=C(N)O2 (centres undefined)
inhibition at 10 µM (MCF7 [10]): 23.2%

COc1ccc(/C=C2\CCCC3(C2=O)[C@@H]2CCCN2[C@@]2(C(=O)Nc4ccccc42)[C@H]3c2ccc(OC)cc2)cc1 (some centres undefined)
IC50 (MCF7 [11]): 18.6 µM | IC50 (K562): 13.4 µM

COc1cc(OC)c(C2NCCC23C(=O)Nc2ccccc23)cc1OC (centres undefined)
EC50 (MCF7 [12]): 4.01 µM | inhibition at 50 µM [13]: 0.8%

CCn1c(SCC(=O)Nc2cccc(C(F)(F)F)c2)nc2c(c1=O)C1(CCCCC1)Cc1ccccc1-2
Activity (Ehrlich): 70% | Activity (Sarcoma-180): 42% | inhibition (INH) [14]: 15%

O=C1Nc2ccc(Br)cc2C12c1c(c3ccccc3oc1=O)N(c1ccc(N3CCOCC3)c(F)c1)c1c2c(=O)oc2ccccc12
IC50 (MCF7 [2]): 9.56 µM | IC50 (HeLa [3]): 18.1 µM | IC50 (A549 [4]): 22.2 µM

Cc1ccc(C(=O)[C@H]2[C@]3(C(=O)Nc4ccc(F)cc43)[C@@H]3c4ccccc4CCN3[C@@]23C(=O)Nc2ccc(Cl)cc23)cc1
inhibition at 200 µg/mL (HepG2 [15]): 73.5% | inhibition at 200 µg/mL (4T1): 33.3%

O=C1Nc2ccc(Br)cc2C12c1c([nH]c(=O)[nH]c1=O)N(c1ccc(N3CCOCC3)c(F)c1)c1[nH]c(=O)[nH]c(=O)c12
IC50 (MCF7 [2]): 23 µM | IC50 (HeLa [3]): 6.81 µM | IC50 (A549 [4]): 25.6 µM

CC(=O)N1C(=O)C2(C(C#N)=C(N)Oc3n[nH]c(C)c32)c2ccccc21 (centres undefined)
inhibition at 10 µM (MCF7 [10]): 26.5%

COc1ccc(C(=O)[C@H]2[C@]3(C(=O)Nc4ccc(Cl)cc43)[C@@H]3c4ccccc4CCN3[C@@]23C(=O)Nc2ccc(Cl)cc23)cc1
inhibition at 200 µg/mL (HepG2 [15]): 70.1% | inhibition at 200 µg/mL (4T1): 23.2%

CC(=O)O[C@H]1CC[C@]2(C)C3CC[C@@]4(C)C(CC[C@H]4[C@H](C)CCCC(C)C)C3C[C@@]3(N=C4C=CC=CN4/C3=N\c3ccccc3)C2C1 (some centres undefined)
IC50 (HT-29): 5.04 µM | IC50 (HepG2 [16]): 2.43 µM | IC50 [17]: 5.35 µM | IC50 (A549 [18]): 5.39 µM | IC50 (MCF7 [19]): 4.31 µM | IC50 (HeLa [20]): 3.56 µM | IC50 (HL-60): 4.46 µM | IC50 (SW480): 5 µM

Cc1cn(CN2C(=O)C3(c4ccccc42)C(C(=O)c2ccccc2)C3C(=O)c2ccc(Cl)cc2)nn1 (centres undefined)
IC50 (HeLa [21]): 4.5 µM | IC50 (HeLa [22]): 9.3 µM

CN1C(=O)N(C)C(=O)C2(CC3(C(=O)c4ccccc4C3=O)N(C)[C@H]2c2ccc(Br)cc2)C1=O
IC50 (B16-F10): 5.2 µM | IC50 (HeLa [8]): 7.3 µM

CCOC(=O)c1[nH]nc2c1C1(C(=O)N(C(C)=O)c3ccccc31)C(C#N)=C(N)O2 (centres undefined)
inhibition at 10 µM (MCF7 [10]): 15.7%
